Data published in PubChem BioAssay AID330 (DTP/NCI, 2004).
Values joined by “and” are separate entries in the source; they are usually repeats but may differ in a detail not shown here. Equal values may be shown once. Toxic doses and inconclusive results are not listed. Peptide text beside a SMILES is read from it.

Test system: P388 leukemia ip, CD2F1 mice, survival T/C
Assay: NCI In Vivo Anticancer Drug Screen. Data for tumor model P388 Leukemia (intraperitoneal) in CD2F1 (CDF1) mice
Conditions: endpoint: median survival time, higher = longer survival
In short: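 Mice carrying the transplanted tumor received test compound or vehicle. Survival was recorded in each group, and the value is the treated-group measurement divided by that of the vehicle-treated control group.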

[1] = dose: 50.0 mg/kg/injection, schedule: Q01DX009 (ip), vehicle: saline with Tween-80
[2] = dose: 100.0 mg/kg/injection, schedule: Q01DX009 (ip), vehicle: saline with Tween-80
[3] = dose: 200.0 mg/kg/injection, schedule: Q01DX009 (ip), vehicle: saline with Tween-80
[4] = dose: 60.0 mg/kg/injection, schedule: Q01DX005 (ip), vehicle: saline with Tween-80
[5] = dose: 120.0 mg/kg/injection, schedule: Q01DX005 (ip), vehicle: saline with Tween-80
[6] = dose: 240.0 mg/kg/injection, schedule: Q01DX005 (ip), vehicle: saline with Tween-80
[7] = dose: 50.0 mg/kg/injection, schedule: Q01DX009 (ip), vehicle: saline
[8] = dose: 100.0 mg/kg/injection, schedule: Q01DX009 (ip), vehicle: saline
[9] = dose: 200.0 mg/kg/injection, schedule: Q01DX009 (ip), vehicle: saline
[10] = dose: 60.0 mg/kg/injection, schedule: Q01DX005 (ip), vehicle: saline
[11] = dose: 120.0 mg/kg/injection, schedule: Q01DX005 (ip), vehicle: saline
[12] = dose: 240.0 mg/kg/injection, schedule: Q01DX005 (ip), vehicle: saline
[13] = dose: 50.0 mg/kg/injection, schedule: Q01DX005 (ip), vehicle: saline with Tween-80
[14] = dose: 100.0 mg/kg/injection, schedule: Q01DX005 (ip), vehicle: saline with Tween-80
[15] = dose: 200.0 mg/kg/injection, schedule: Q01DX005 (ip), vehicle: saline with Tween-80
[16] = dose: 50.0 mg/kg/injection, schedule: Q01DX005 (ip), vehicle: Klucel (hydroxypropylcellulose) (HPC)
[17] = dose: 100.0 mg/kg/injection, schedule: Q01DX005 (ip), vehicle: Klucel (hydroxypropylcellulose) (HPC)
[18] = dose: 200.0 mg/kg/injection, schedule: Q01DX005 (ip), vehicle: Klucel (hydroxypropylcellulose) (HPC)
[19] = dose: 12.5 mg/kg/injection, schedule: Q01DX009 (ip), vehicle: water
[20] = dose: 25.0 mg/kg/injection, schedule: Q01DX009 (ip), vehicle: water

Structure (SMILES): CC(C)(C)c1cc(C(c2ccccc2)(c2ccccc2)c2ccccc2)cc2c1OP(F)(c1ccccc1)(c1ccccc1)N2
- T/C [1]: 91 % of control
- T/C [2]: 95 % of control
- T/C [3]: 91 % of control

Structure (SMILES): c1ccc2c(-c3cc(-c4cc(-c5cccc6ccccc56)on4)no3)cccc2c1
- T/C [4]: 106 % of control
- T/C [5]: 97 % of control
- T/C [6]: 100 % of control

Structure (SMILES): O=S1(=O)CCN(c2ccccc2)CC1
- T/C [7]: 96 % of control
- T/C [8]: 98 % of control
- T/C [9]: 95 % of control

Structure (SMILES): CCOC(=O)C1CN2C(=O)CCC2C1=O (stereo not given)
- T/C [10]: 104 % of control
- T/C [11]: 103 % of control
- T/C [12]: 103 % of control

Structure (SMILES): Cc1cc(=O)oc2c1cc(OCC(=O)OCCN1CCCCC1)c1occ(C)c12
- T/C [13]: 99 % of control
- T/C [14]: 92 % of control
- T/C [15]: 93 % of control

Structure (SMILES): CC1(C(Cl)(Cl)Cl)C=C(Cl)C(=O)C(Cl)=C1
- T/C (dose: 25.0 mg/kg/injection, schedule: Q01DX005 (ip), vehicle: Klucel (hydroxypropylcellulose) (HPC)): 99 % of control
- T/C [16]: 98 % of control and 92 % of control
- T/C [17]: 102 % of control
- T/C [18]: 92 % of control

Structure (SMILES): N#CCc1cccc2c(=O)cc(-c3ccccc3)oc12
- T/C [16]: 106 % of control
- T/C [17]: 96 % of control
- T/C [18]: 87 % of control

Structure (SMILES): [Ni]=[Se]
- T/C [10]: 97 % of control
- T/C [11]: 96 % of control
- T/C [12]: 97 % of control

Structure (SMILES): CC(C)(C)CC(C)(C)C/C=C/C[N+](C)(C)C/C=C/CC(C)(C)CC(C)(C)C
- T/C (dose: 12.5 mg/kg/injection, schedule: Q04DX002 (ip), vehicle: saline): 102 % of control
- T/C (dose: 25.0 mg/kg/injection, schedule: Q04DX002 (ip), vehicle: saline): 95 % of control

Structure (SMILES): Cn1nnnc1SCC1=C(C(=O)O)N2C(=O)C(NC(=O)C(OC=O)c3ccccc3)C2SC1 (stereo not given)
- T/C [7]: 100 % of control
- T/C [8]: 97 % of control
- T/C [9]: 104 % of control

Structure (SMILES): CC1=CCC(C#N)N(C)C1c1ccccc1 (stereo not given)
- T/C [16]: 108 % of control
- T/C [17]: 97 % of control
- T/C [18]: 99 % of control

Structure (SMILES): Cc1c(O)cccc1O
- T/C [8]: 105 % of control

Structure (SMILES): O=C1c2ccccc2C(O)(C#Cc2ccccc2)c2c1oc1ccc3ccccc3c21 (stereo not given)
- T/C [1]: 100 % of control
- T/C [2]: 92 % of control
- T/C [3]: 87 % of control

Structure (SMILES): COC(=O)/N=C/CCC(O)NC(=O)OC (stereo not given)
- T/C [13]: 98 % of control
- T/C [14]: 101 % of control
- T/C [15]: 92 % of control

Structure (SMILES): CCOC(=O)Cc1cc(=O)oc2c(CN3CCN(c4ccc(C)cc4)CC3)c(O)ccc12
- T/C [4]: 100 % of control
- T/C [5]: 87 % of control
- T/C [6]: 99 % of control

Structure (SMILES): COc1cc(N(CCCl)CCCl)ccc1NC(=O)c1ccccc1
- T/C (dose: 6.25 mg/kg/injection, schedule: Q01DX009 (ip), vehicle: saline): 150 % of control
- T/C (dose: 6.25 mg/kg/injection, schedule: Q04DX003 (ip), vehicle: saline with Tween-80): 109 % of control
- T/C (dose: 12.5 mg/kg/injection, schedule: Q01DX009 (ip), vehicle: saline): 168 % of control
- T/C (dose: 12.5 mg/kg/injection, schedule: Q04DX003 (ip), vehicle: saline with Tween-80): 118 % of control
- T/C (dose: 16.5 mg/kg/injection, schedule: Q04DX003 (ip), vehicle: saline sonified): 113 % of control
- T/C (dose: 25.0 mg/kg/injection, schedule: Q01DX009 (ip), vehicle: saline): 100 % of control
- T/C (dose: 37.5 mg/kg/injection, schedule: Q04DX003 (ip), vehicle: saline sonified): 181 % of control

Structure (SMILES): COc1ccc2sc3cc(Cl)ccc3c(=O)c2c1
- T/C (dose: 1.87 mg/kg/injection, schedule: Q01DX005 (ip), vehicle: saline with Tween-80): 89 % of control
- T/C (dose: 3.75 mg/kg/injection, schedule: Q01DX005 (ip), vehicle: saline with Tween-80): 90 % of control
- T/C (dose: 15.0 mg/kg/injection, schedule: Q01DX005 (ip), vehicle: saline with Tween-80): 89 % of control and 90 % of control
- T/C [4]: 88 % of control

Structure (SMILES): OC(c1cc2cc(Br)ccc2c2cc(Br)ccc12)C1CCCCN1 (stereo not given)
- T/C (dose: 6.25 mg/kg/injection, schedule: Q01DX009 (ip), vehicle: saline with Tween-80): 107 % of control
- T/C (dose: 12.5 mg/kg/injection, schedule: Q01DX009 (ip), vehicle: saline with Tween-80): 109 % of control
- T/C (dose: 25.0 mg/kg/injection, schedule: Q01DX009 (ip), vehicle: saline with Tween-80): 101 % of control

Structure (SMILES): CC(C)C(NC(=O)C(CCCN=C(N)N)NC(=O)C(N)CCCCN)C(N)=O (stereo not drawn) (H-Lys-Arg-Val-NH2; configuration not given here)
- T/C [19]: 105 % of control
- T/C [20]: 103 % of control
- T/C (dose: 50.0 mg/kg/injection, schedule: Q01DX009 (ip), vehicle: water): 99 % of control
- T/C (dose: 100.0 mg/kg/injection, schedule: Q01DX009 (ip), vehicle: water): 105 % of control
- T/C (dose: 200.0 mg/kg/injection, schedule: Q01DX009 (ip), vehicle: water): 100 % of control

Structure (SMILES): O=C(O)C1CSC(c2ccc(O)cc2)N1 (stereo not given)
- T/C [7]: 87 % of control
- T/C [8]: 88 % of control
- T/C [9]: 90 % of control

Structure (SMILES): COc1ccc(C(C)=O)cc1CN1CCN(Cc2cc(C(C)=O)ccc2OC)CC1
- T/C [16]: 104 % of control
- T/C [17]: 105 % of control
- T/C [18]: 99 % of control

Structure (SMILES): CCCCCC(=O)C1C(c2ccc(C)cc2)CC(=O)C(CCCC)C1c1ccc(C)cc1 (stereo not given)
- T/C [13]: 93 % of control
- T/C [14]: 93 % of control
- T/C [15]: 93 % of control

Structure (SMILES): Cc1ccc(CCNC(=O)c2c3nc4c(C(=O)NCCc5ccc(C)cc5)ccc(C)c4oc-3c(C)c(=O)c2N)cc1
- T/C (dose: 25.0 mg/kg/injection, schedule: Q04DX003 (ip), vehicle: DMSO): 98 % of control
- T/C (dose: 50.0 mg/kg/injection, schedule: Q04DX003 (ip), vehicle: DMSO): 99 % of control
- T/C (dose: 100.0 mg/kg/injection, schedule: Q04DX003 (ip), vehicle: DMSO): 91 % of control

Structure (SMILES): Cn1c(=O)c2c(ncn2-c2ccc(N)cc2Cl)n(C)c1=O
- T/C (dose: 25.0 mg/kg/injection, schedule: Q01DX005 (ip), vehicle: distilled water + alcohol): 100 % of control
- T/C (dose: 50.0 mg/kg/injection, schedule: Q01DX005 (ip), vehicle: distilled water + alcohol): 100 % of control and 101 % of control
- T/C (dose: 100.0 mg/kg/injection, schedule: Q01DX005 (ip), vehicle: distilled water + alcohol): 104 % of control
- T/C (dose: 200.0 mg/kg/injection, schedule: Q01DX005 (ip), vehicle: distilled water + alcohol): 99 % of control

Structure (SMILES): ClCCN1c2ccccc2Sc2ccc3ccccc3c21
- T/C [13]: 89 % of control
- T/C [14]: 93 % of control

Structure (SMILES): OCC1OC(n2nnc3cc[nH]c(=S)c32)C(O)C1O (stereo not given)
- T/C (dose: 1.56 mg/kg/injection, schedule: Q01DX009 (ip), vehicle: water): 106 % of control
- T/C (dose: 3.13 mg/kg/injection, schedule: Q01DX009 (ip), vehicle: water): 99 % of control
- T/C (dose: 6.25 mg/kg/injection, schedule: Q01DX009 (ip), vehicle: water): 98 % of control
- T/C [19]: 107 % of control
- T/C [20]: 97 % of control

Structure (SMILES): Cc1ccc(C2COc3cc(O)c(O)cc3C2)cc1 (stereo not given)
- T/C [4]: 103 % of control
- T/C [5]: 105 % of control
- T/C [6]: 117 % of control

Structure (SMILES): CC1(C)N=C(N)N=C(N)N1c1ccc(CNC(=O)Nc2ccc(S(=O)(=O)F)cc2)cc1
- T/C (dose: 100.0 mg/kg/injection, schedule: Q04DX003 (ip), vehicle: saline): 172 % of control
- T/C (dose: 200.0 mg/kg/injection, schedule: Q04DX003 (ip), vehicle: saline): 181 % of control
- T/C (dose: 400.0 mg/kg/injection, schedule: Q04DX003 (ip), vehicle: saline): 90 % of control

Structure (SMILES): CCn1c2ccccc2c2ccc(N=Nc3ccccc3)cc21
- T/C (dose: 100.0 mg/kg/injection, schedule: Q04DX003 (ip), vehicle: Klucel (hydroxypropylcellulose) (HPC)): 100 % of control
- T/C (dose: 200.0 mg/kg/injection, schedule: Q04DX003 (ip), vehicle: Klucel (hydroxypropylcellulose) (HPC)): 100 % of control
- T/C (dose: 400.0 mg/kg/injection, schedule: Q04DX003 (ip), vehicle: Klucel (hydroxypropylcellulose) (HPC)): 105 % of control

Structure (SMILES): CCN(CC)CCSCCCNc1cc(OC)cc2cccnc12
- T/C (dose: 12.5 mg/kg/injection, schedule: Q01DX005 (ip), vehicle: saline): 93 % of control
- T/C (dose: 25.0 mg/kg/injection, schedule: Q01DX005 (ip), vehicle: saline): 88 % of control
- T/C (dose: 50.0 mg/kg/injection, schedule: Q01DX005 (ip), vehicle: saline): 95 % of control and 98 % of control

Structure (SMILES): O=C1NC(=O)c2cc3ccccc3cc21
- T/C [13]: 87 % of control
- T/C [14]: 87 % of control
- T/C [15]: 91 % of control
